# Assay results reported in patent publication US20090118332A1, “Therapeutic Agents - 551” (AstraZeneca AB, priority 2006, published 2009).
# Target: T1, human Fatty Acid Synthase (Homo sapiens, UniProt P49327)
# T1 construct: made in house
# Test: Human FAS enzyme assay (decrease in NADPH fluorescence)
# Type: biochemical
# Settings: % inhibition at a concentration of 100 μmolar
# How it was run: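 In-house human FAS was preincubated with compound and NADPH for 15 min at room temperature in 0.1 M Tris pH 7.5 with EDTA, glutathione and BSA. Malonyl CoA and acetyl CoA (500 μM and 150 μM in the added mix) were then added for 60 min. IC50 came from time-zero-subtracted NADPH fluorescence (340/460 nm).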
# T1 sequence (P49327 whole entry): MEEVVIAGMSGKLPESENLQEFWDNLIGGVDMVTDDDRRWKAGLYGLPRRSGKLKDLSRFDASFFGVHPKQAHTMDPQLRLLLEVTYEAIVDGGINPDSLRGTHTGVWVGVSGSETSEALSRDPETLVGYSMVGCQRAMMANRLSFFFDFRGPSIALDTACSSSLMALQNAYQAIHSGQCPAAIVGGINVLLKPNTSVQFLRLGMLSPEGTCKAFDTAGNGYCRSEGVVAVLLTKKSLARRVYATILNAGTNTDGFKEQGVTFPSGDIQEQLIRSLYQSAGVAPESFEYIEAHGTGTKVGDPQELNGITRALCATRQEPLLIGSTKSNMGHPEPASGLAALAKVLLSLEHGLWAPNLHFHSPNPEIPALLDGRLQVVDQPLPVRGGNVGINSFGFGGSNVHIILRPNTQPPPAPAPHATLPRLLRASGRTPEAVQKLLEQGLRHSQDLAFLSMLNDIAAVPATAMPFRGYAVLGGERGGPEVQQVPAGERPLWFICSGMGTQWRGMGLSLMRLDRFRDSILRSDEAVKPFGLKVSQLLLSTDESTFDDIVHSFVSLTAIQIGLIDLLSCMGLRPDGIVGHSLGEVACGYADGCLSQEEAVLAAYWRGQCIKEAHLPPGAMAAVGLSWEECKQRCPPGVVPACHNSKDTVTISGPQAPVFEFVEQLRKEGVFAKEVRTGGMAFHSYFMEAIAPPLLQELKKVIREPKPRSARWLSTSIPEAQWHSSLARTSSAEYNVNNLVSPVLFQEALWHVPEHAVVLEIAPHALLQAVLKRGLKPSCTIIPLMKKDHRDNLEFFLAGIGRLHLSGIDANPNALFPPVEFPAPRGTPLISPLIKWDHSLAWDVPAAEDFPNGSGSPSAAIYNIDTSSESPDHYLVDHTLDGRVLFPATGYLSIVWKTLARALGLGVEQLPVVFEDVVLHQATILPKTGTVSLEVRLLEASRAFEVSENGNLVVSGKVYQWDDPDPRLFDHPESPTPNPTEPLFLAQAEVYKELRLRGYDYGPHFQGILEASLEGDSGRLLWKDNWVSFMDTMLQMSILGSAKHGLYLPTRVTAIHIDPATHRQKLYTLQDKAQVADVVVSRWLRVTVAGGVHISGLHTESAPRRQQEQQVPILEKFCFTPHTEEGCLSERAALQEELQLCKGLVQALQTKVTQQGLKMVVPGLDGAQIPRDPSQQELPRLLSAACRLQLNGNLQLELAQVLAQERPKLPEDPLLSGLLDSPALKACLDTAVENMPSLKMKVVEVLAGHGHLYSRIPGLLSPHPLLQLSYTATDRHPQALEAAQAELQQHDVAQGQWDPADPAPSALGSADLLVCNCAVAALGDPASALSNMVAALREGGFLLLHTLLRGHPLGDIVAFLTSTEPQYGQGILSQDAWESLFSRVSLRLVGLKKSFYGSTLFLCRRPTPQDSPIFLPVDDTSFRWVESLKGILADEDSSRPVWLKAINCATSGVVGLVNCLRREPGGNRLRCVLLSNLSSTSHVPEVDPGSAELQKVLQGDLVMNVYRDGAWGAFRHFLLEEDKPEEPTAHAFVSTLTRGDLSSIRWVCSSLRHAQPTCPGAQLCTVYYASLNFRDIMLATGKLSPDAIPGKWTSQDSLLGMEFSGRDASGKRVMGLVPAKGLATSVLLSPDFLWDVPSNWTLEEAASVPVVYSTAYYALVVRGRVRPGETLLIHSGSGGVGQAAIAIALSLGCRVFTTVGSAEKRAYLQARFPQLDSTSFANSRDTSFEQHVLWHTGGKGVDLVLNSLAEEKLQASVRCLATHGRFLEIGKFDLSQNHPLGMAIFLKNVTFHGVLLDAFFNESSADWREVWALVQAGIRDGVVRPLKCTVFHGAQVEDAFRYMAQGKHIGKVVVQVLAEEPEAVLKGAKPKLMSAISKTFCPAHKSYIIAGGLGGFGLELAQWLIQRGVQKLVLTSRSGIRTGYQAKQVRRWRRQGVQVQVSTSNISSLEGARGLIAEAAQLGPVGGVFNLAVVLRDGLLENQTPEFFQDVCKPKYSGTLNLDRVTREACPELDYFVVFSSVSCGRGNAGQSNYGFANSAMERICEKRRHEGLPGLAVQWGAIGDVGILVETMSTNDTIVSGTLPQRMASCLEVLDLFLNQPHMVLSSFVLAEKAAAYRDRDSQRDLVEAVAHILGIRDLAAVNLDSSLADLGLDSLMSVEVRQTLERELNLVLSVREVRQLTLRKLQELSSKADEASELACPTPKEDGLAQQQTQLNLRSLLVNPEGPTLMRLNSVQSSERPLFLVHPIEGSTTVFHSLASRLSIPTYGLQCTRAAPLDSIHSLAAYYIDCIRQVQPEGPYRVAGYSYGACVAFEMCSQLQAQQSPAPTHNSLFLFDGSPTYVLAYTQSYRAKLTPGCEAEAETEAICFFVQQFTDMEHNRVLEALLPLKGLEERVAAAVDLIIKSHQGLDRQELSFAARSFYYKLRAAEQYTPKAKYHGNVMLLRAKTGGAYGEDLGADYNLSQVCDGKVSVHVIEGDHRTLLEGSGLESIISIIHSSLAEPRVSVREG
row,SMILES,inhibition at 100 µM [%]
1,"CCOCC1CCCN1C(=O)Nc1cc(C(=O)N2CCC(c3ccc(C#N)cc3)CC2)ccc1C (stereo not shown) [Example 399, N-[5-[4-(4-cyanophenyl)piperidine-1-carbonyl]-2-methylphenyl]-2-(ethoxymethyl)pyrrolidine-1-carboxamide]",73.3
2,"CNCCNC(=O)Nc1cc(C(=O)N2CCC(c3ccc(F)cc3)CC2)ccc1C [Example 400, 1-[5-[4-(4-fluorophenyl)piperidine-1-carbonyl]-2-methylphenyl]-3-(2-methylaminoethyl)urea]",66.7
3,"CCS(=O)(=O)NCCN(C)C(=O)Nc1cc(C(=O)N2CCC(c3ccc(C#N)cc3)CC2)ccc1C [Example 402, 3-[5-[4-(4-cyanophenyl)piperidine-1-carbonyl]-2-methylphenyl]-1-[2-(ethylsulfonylamino)ethyl]-1-methylurea]",64.6
4,"Cc1ccc(C(=O)N2CCC(c3ccc(C#N)cc3)CC2)cc1NC(=O)NC1CCC(C(=O)O)CC1 (stereo not shown) [Example 406, 4-[[5-[4-(4-cyanophenyl)piperidine-1-carbonyl]-2-methylphenyl]carbamoylamino]cyclohexane-1-carboxylic acid]",93.4
5,"Cc1ccc(C(=O)N2CCC(c3ccc(C#N)cc3)CC2)cc1NC(=O)NCC(=O)O [Example 408, 2-[[5-[4-(4-cyanophenyl)piperidine-1-carbonyl]-2-methylphenyl]carbamoylamino]acetic acid]",95.7
6,"Cc1cc(C)c(C(=O)N2CCC(c3ccc(C#N)cc3)CC2)cc1NC(=O)NCc1ccccn1 [Example 409, 1-[5-[4-(4-cyanophenyl)piperidine-1-carbonyl]-2,4-dimethylphenyl]-3-(pyridin-2-ylmethyl)urea]",96.9
7,"Cc1cc(C)c(C(=O)N2CCC(c3ccc(C#N)cc3)CC2)cc1NC(=O)NC1CC1 [Example 411, 1-[5-[4-(4-cyanophenyl)piperidine-1-carbonyl]-2,4-dimethylphenyl]-3-cyclopropylurea]",90
8,"COCCNC(=O)Nc1cc(C(=O)N2CCC(c3ccc(C#N)cc3)CC2)c(C)cc1C [Example 412, 1-[5-[4-(4-cyanophenyl)piperidine-1-carbonyl]-2,4-dimethylphenyl]-3-(2-methoxyethyl)urea]",89.9
9,"C#CCNC(=O)Nc1cc(C(=O)N2CCC(c3ccc(C#N)cc3)CC2)c(C)cc1C [Example 413, 1-[5-[4-(4-cyanophenyl)piperidine-1-carbonyl]-2,4-dimethylphenyl]-3-prop-2-ynylurea]",101
10,"Cc1ccc(NC(=O)NCc2ccccn2)cc1C(=O)N1CCC(c2ccc(C#N)cc2)CC1 [Example 414, 1-[3-[4-(4-cyanophenyl)piperidine-1-carbonyl]-4-methylphenyl]-3-(pyridin-2-ylmethyl)urea]",83.6
11,"Cc1ccc(NC(=O)NC2CC2)cc1C(=O)N1CCC(c2ccc(C#N)cc2)CC1 [Example 415, 1-[3-[4-(4-cyanophenyl)piperidine-1-carbonyl]-4-methylphenyl]-3-cyclopropylurea]",78.2
12,"C#CCNC(=O)Nc1ccc(C)c(C(=O)N2CCC(c3ccc(C#N)cc3)CC2)c1 [Example 418, 1-[3-[4-(4-cyanophenyl)piperidine-1-carbonyl]-4-methylphenyl]-3-prop-2-ynylurea]",67.3

# Further lines, results first:
row,inhibition at 100 µM [%],SMILES
1,65.7,"CC(=O)NCCN(C)C(=O)Nc1cc(C(=O)N2CCC(c3ccc(C#N)cc3)CC2)ccc1C [Example 401, N-[2-[[5-[4-(4-cyanophenyl)piperidine-1-carbonyl]-2-methylphenyl]carbamoyl-methylamino]ethyl]acetamide]"
2,79.9,"CC(C)NC(=O)Nc1cc(C(=O)N2CCC(c3ccc(C#N)cc3)CC2)ccc1CS(C)(=O)=O [Example 403, 3-[5-[4-(4-cyanophenyl)piperidine-1-carbonyl]-2-(methylsulfonylmethyl)phenyl]-1-propan-2-ylurea]"
3,76.5,"Cc1ccc(NC(=O)NC(C)C)cc1C(=O)N1CCC(c2ccc(C#N)cc2)CC1 [Example 404, 1-[3-[4-(4-cyanophenyl)piperidine-1-carbonyl]-4-methylphenyl]-3-propan-2-ylurea]"
4,66.8,"CSc1ccc(NC(=O)NC(C)C)cc1C(=O)N1CCC(c2ccc(C#N)cc2)CC1 [Example 405, 3-[3-[4-(4-cyanophenyl)piperidine-1-carbonyl]-4-methylsulfanylphenyl]-1-propan-2-ylurea]"
5,104,"Cc1ccc(C(=O)N2CCC(c3ccc(C#N)cc3)CC2)cc1NC(=O)NCCCC(=O)O [Example 407, 4-[[5-[4-(4-cyanophenyl)piperidine-1-carbonyl]-2-methylphenyl]carbamoylamino]butanoic acid]"
6,93.7,"CCNC(=O)Nc1cc(C(=O)N2CCC(c3ccc(C#N)cc3)CC2)c(C)cc1C [Example 410, 3-[5-[4-(4-cyanophenyl)piperidine-1-carbonyl]-2,4-dimethylphenyl]-1-ethylurea]"
7,90.8,"CCOCCCNC(=O)Nc1ccc(C)c(C(=O)N2CCC(c3ccc(C#N)cc3)CC2)c1 [Example 416, 3-[3-[4-(4-cyanophenyl)piperidine-1-carbonyl]-4-methylphenyl]-1-(3-ethoxypropyl)urea]"
8,85.1,"COCCNC(=O)Nc1ccc(C)c(C(=O)N2CCC(c3ccc(C#N)cc3)CC2)c1 [Example 417, 1-[3-[4-(4-cyanophenyl)piperidine-1-carbonyl]-4-methylphenyl]-3-(2-methoxyethyl)urea]"

# Same assay, conditions: FAS enzyme assay, IC50 from fitted sigmoid curves
row,SMILES,"IC50, inhibition of human Fatty Acid Synthase"
1,COC(=O)C(C)(C)NC(=O)Nc1cc(C(=O)N2CCC(c3ccc(C#N)cc3)CC2)ccc1C [Methyl 2-[[5-[4-(4-cyanophenyl)piperidine-1-carbonyl]-2-methylphenyl]carbamoylamino]-2-methylpropanoate],do not have IC50s in the range of about 0.001 μM to about 30 μM
2,COC(=O)C(Cc1ccc(F)cc1)NC(=O)Nc1cc(C(=O)N2CCC(c3ccc(C#N)cc3)CC2)ccc1C (stereo not shown) [Methyl 2-[[5-[4-(4-cyanophenyl)piperidine-1-carbonyl]-2-methylphenyl]carbamoylamino]-3-(4-fluorophenyl)propanoate],do not have IC50s in the range of about 0.001 μM to about 30 μM
3,COC(=O)C(CCn1cnnn1)NC(=O)Nc1cc(C(=O)N2CCC(c3ccc(C#N)cc3)CC2)ccc1C (stereo not shown) [Methyl 2-[[5-[4-(4-cyanophenyl)piperidine-1-carbonyl]-2-methylphenyl]carbamoylamino]-4-(tetrazol-1-yl)butanoate],do not have IC50s in the range of about 0.001 μM to about 30 μM
4,COC(=O)[C@@H](NC(=O)Nc1cc(C(=O)N2CCC(c3ccc(C#N)cc3)CC2)ccc1C)c1ccccc1 [Methyl (2S)-2-[[5-[4-(4-cyanophenyl)piperidine-1-carbonyl]-2-methylphenyl]carbamoylamino]-2-phenylacetate],do not have IC50s in the range of about 0.001 μM to about 30 μM
5,COC(=O)[C@H](Cc1cn(C)cn1)NC(=O)Nc1cc(C(=O)N2CCC(c3ccc(C#N)cc3)CC2)ccc1C [Methyl (2S)-2-[[5-[4-(4-cyanophenyl)piperidine-1-carbonyl]-2-methylphenyl]carbamoylamino]-3-(1-methylimidazol-4-yl)propanoate],do not have IC50s in the range of about 0.001 μM to about 30 μM
